Results taken from publication PMC8750650 (bioRxiv, 2022).

What was measured:
[1] = target: CSNK2A1 (Homo sapiens, UniProt P68400); assay: cell-based; type: cell-based
[2] = target: CSNK2A2 (Homo sapiens, UniProt P19784); assay: cell-based
[3] = tested on: MHV-nLuc; assay: microbe, parasite or virus in culture; type: cell-based, mouse hepatitis virus (MHV); conditions: Murine coronavirus, 10 h, read-out: MHV replication (pIC50) (converted)
[4] = tested on: SARS-CoV-2 spike protein uptake; type: cell-based, human
[5] = tested on: A549-ACE2 cells; conditions: ref [18]; cited from earlier work
[6] = tested on: SARS-CoV-2; conditions: human lung epithelial A549-ACE2 cells; ref [18]; cited from earlier work
[7] = tested on: SARS-CoV-2; conditions: African green monkey kidney epithelial Vero cells infected with SARS-CoV-2; ref [18]; cited from earlier work
[8] = tested on: DBT cells; conditions: LDH assay, 10 h, concentrations up to 10 μM
[9] = tested on: Vero cells; conditions: ref [18]; cited from earlier work

CSNK2A1, sequence (P68400 whole entry): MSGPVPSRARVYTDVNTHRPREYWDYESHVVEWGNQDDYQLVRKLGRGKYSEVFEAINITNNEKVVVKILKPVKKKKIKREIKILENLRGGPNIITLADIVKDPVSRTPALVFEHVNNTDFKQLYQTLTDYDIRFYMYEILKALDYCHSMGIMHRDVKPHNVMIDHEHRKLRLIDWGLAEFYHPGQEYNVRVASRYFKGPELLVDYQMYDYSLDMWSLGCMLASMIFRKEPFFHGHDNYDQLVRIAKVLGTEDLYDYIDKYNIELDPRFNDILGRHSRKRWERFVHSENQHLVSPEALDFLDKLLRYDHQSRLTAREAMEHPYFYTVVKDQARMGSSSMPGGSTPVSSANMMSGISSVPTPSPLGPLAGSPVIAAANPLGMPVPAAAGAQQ
CSNK2A2, sequence (P19784 whole entry): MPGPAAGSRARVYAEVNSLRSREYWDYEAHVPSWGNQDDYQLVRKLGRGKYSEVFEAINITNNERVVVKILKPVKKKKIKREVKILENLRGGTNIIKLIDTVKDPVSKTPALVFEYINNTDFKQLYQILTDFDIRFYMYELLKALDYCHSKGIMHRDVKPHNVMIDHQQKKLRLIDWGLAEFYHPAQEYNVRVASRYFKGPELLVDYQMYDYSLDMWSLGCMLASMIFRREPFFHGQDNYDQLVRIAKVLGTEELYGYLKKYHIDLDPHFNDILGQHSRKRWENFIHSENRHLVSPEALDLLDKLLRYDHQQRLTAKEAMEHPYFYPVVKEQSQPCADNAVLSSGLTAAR

| SMILES | IC50 [1] [nM] | IC50 [2] [nM] | further results |
| --- | --- | --- | --- |
| CCC(=O)Nc1cc(Nc2cc(NC3CC3)n3ncc(C#N)c3n2)ccc1N(C)CCN [Compound 9] | 3.98 | – | – |
| CCC(=O)Nc1cc(Nc2cc(NC3CC3)n3ncc(C#N)c3n2)ccc1N(C)CCN1CCCC1 [Compound 11] | 100 | 100 | – |
| CCC(=O)Nc1cc(Nc2cc(NC3CC3)n3ncc(C#N)c3n2)ccc1N(C)CCN1CCCCC1 [Compound 12] | 251 | – | – |
| CCC(=O)Nc1cc(Nc2cc(NC3CC3)n3ncc(C#N)c3n2)ccc1N1CCNCC1 [Compound 14] | 158 | – | – |
| CCC(=O)Nc1cc(Nc2cc(NC3CC3)n3ncc(C#N)c3n2)ccc1N1CCCC(NC)C1 (stereo not drawn) [Compound 15] | 2 | 15.8 | selectivity for CSNK2A1 over CSNK2A2 ([1]; from nanoBRET values): 6–8 fold |
| CC(=O)Nc1ccc2ccn(-c3cc(NC4CC(F)(F)C4)n4ncc(C#N)c4n3)c2c1 [Compound 18] | 39.8 | 100 | – |
| CC(=O)Nc1ccc2ccn(-c3cc(NC45CC(C4)C5)n4ncc(C#N)c4n3)c2c1 [Compound 19] | 158 | 79.4 | – |
| CC(=O)Nc1ccc2ccn(-c3cc(NC4(C)CC4)n4ncc(C#N)c4n3)c2c1 [Compound 20] | 501 | 1580 | – |
| CC(=O)Nc1ccc2ccn(-c3cc(NCC4CCOC4)n4ncc(C#N)c4n3)c2c1 (stereo not drawn) [Compound 25] | 31.6 | 251 | – |
| CC(=O)Nc1ccc2ccn(-c3cc(NCC4CCOCC4)n4ncc(C#N)c4n3)c2c1 [Compound 26] | 100 | 2000 | – |
| CC(=O)Nc1ccc2ccn(-c3cc(NC4CCN(C(C)=O)CC4)n4ncc(C#N)c4n3)c2c1 [Compound 28] | 63.1 | 398 | – |
| CC(=O)Nc1ccc2ccn(-c3cc(NCc4cnn(C)c4)n4ncc(C#N)c4n3)c2c1 [Compound 29] | 158 | 200 | – |
| CC(=O)Nc1ccc2ccn(-c3cc(N[C@H](C)C#N)n4ncc(C#N)c4n3)c2c1 [Compound 30] | 126 | 79.4 | – |
| CC(=O)Nc1ccc2ccn(-c3cc(Sc4ccccc4)n4ncc(C#N)c4n3)c2c1 [Compound 33] | 6310 | 6310 | – |
| CCC(=O)Nc1cc(Nc2cc(NC3CC3)n3ncc(C#N)c3n2)ccc1C [SGC-CK2–1] | – | – | IC50 [3]: 126 nM; decrease in spike protein uptake [4]: 70–80% |
| O=C(O)c1ccc2c(c1)nc(Nc1cccc(Cl)c1)c1ccncc12 [silmitasertib] | – | – | cell toxicity [5]: cell toxicity at micromolar doses; inhibition of SARS-CoV-2 infection (pIC50) [6]: < 5; antiviral activity, SARS-CoV-2 (pIC50) [7]: 5.6; effect on cell viability [8]: no effect on cell viability; cell toxicity [9]: cell toxicity at micromolar doses |
